Consider two compounds from patent publication US20060223877A1, “Methods of treatment utilizing certain melatonin derivatives” (priority 2005, published 2006).

For series [1], the system named is patients with a diagnosis of fibromyalgia. The following applies: cited from earlier work.
Series [2] has as its system patients with a diagnosis of migraine with or without aura. The note with it: daily treatment; Peres et al., 2004; cited from earlier work.
Series [3] concerns subjects fed a high-fat diet. The note with it: daily administration, Pruet-Marcassus et al., 2003; cited from earlier work.
The next series relates to middle-aged male rats. The following applies: cited from earlier work.
The next series relates to melatonin receptors. The note with it: Mulchahey, et al., 2004; cited from earlier work.
The subject of another series is male Sprague-Dawley rats. Description: open field test. The class given is in vivo. The note with it: for rearing behavior compared to vehicle controls: FIG. 1; for immobility compared to controls: FIG. 2. As for the experimental part:
Subjects were male Sprague-Dawley rats weighing 250-300 g housed in a temperature- and humidity-controlled vivarium on a 12:12 hr light:dark cycle with food and water available ad libitum. Behavioral testing occurred 2 hrs after lights out. […] All treatments were administered to an animal once (no repeat drug administration) with 8 animals per treatment. The open filed testing procedure has been previously described (Herman et al., 2003). Briefly, the open field apparatus is a 36×36-inch white PLEXIGLAS® enclosure, divided into 36 squares of equal size. Animals are placed into the apparatus and allowed to explore the environment for 5 min. Sessions are videotaped and scored for behavior by an investigator blinded to the treatment condition. Behavior is scored for the two primary outcome measures: rearing and immobility, as well as grooming; and secondary measures of sedation: total mobility and quadrant crossing.

The next series deals with humans. The note with it: 20 mg to 100 mg per day, Zemlan et al., 2005; cited from earlier work.
In series [4] the test system is TNF-α stimulated EOC-20 cells. The series is described as follows: nitrite and PGE2 in TNF-α stimulated EOC-20 microglial cells. The following applies: 20 ng/ml TNF-α-stimulated EOC-20 cells, dose-dependent manner. The class given is cell-based. The text has this: The compounds of the present invention are effective in treating neurodegenerative diseases, such as amyotrophic lateral sclerosis (ALS), Alzheimer's disease (AD), Huntington's disease (HD) and Parkinson's disease (PD).
The experiments consisted of treating TNF-α stimulated EOC-20 cells with increasing concentrations of β-methyl-6-chloromelatonin followed by measuring neuroinflammation-associated markers. Neuroinflammation activates microglia to produce proinflammatory cytokines, reactive oxygen species (ROS) and reactive nitrogen species (RNS) in ALS, AD, HD and PD-associated pathophysiology (Deckel, 2001; Cacquevel, 2004; McGeer and McGeer, 2004; Sargsyanet al., 2005). Increase in prostaglandin (PGE2), a potent inflammatory mediator, and nitrite, an indirect measure of RNS production, indicates inflammation-induced neurodegeneration in ALS, AD, HD and PD patients (Milstien et al., 1994; Tohgi et al., 1999; Deckel, 2001 ;Cacquevel, 2004).

A further series deals with IHI mice. The series is described as follows: ischemia-hypoxia injury (IHI) model of cerebrovascular disease. The class given is in vivo. The following applies: 10 and 100 mg/kg intraperitoneally 30 minutes before and 30 minutes after hypoxia, Day 3, dose-dependent, FIG. 6. As for the experimental part: Subjects were 8-12 week old adult male C57B116 mice housed in a temperature- and humidity-controlled vivarium on a 12:12 hr light:dark cycle with food and water available ad libitum. The mice were subjected to ischemia-hypoxia injury (IHI). The injury was rendered by permanently occluding the right common carotid artery and delivering hypoxic gas (7.5% O2) for 30 minutes employing a gas mask under anesthesia. The animal's body temperature was maintained at 36.5-37.5° C. throughout the experiment. For drug efficacy studies, β-methyl-6-chloro-melatonin was administered intraperitoneally 30 minutes before and 30 minutes after hypoxia at doses of 0 (vehicle only), 10 and 100 mg/kg. On Day 3 after injury, quantitative morphometric image analysis was employed to assess infarction size in Nissl-stained brain sections isolated from the animals. β-methyl-6-chloromelatonin administration caused a 33-40% reduction in brain infarct size in IHI mice compared to vehicle-treated IHI mice (FIG. 6). The protection conferred by β-methyl-6-chloromelatonin was dose-dependent.

A further series deals with TBI rats. Description: traumatic brain injury, controlled cortical impact model. The class given is in vivo. The following applies: 10 mg/kg intraperitoneally, two doses (15 minutes and 24 hours after TBI), Day 7 morphometry, P=0.01, FIG. 3. The text has this:
Subjects were male Sprague-Dawley rats weighing 250-300 g housed in a temperature- and humidity-controlled vivarium on a 12:12 hr light:dark cycle with food and water available ad libitum. Animals were subjected to TBI using controlled cortical impact model. (Sullivan et al. 2000a). Animals were anesthetized and their brain cortex exposed. Employing a pneumatically-controlled impactor rod with a 5 mm diameter beveled tip, one of the cortices was compressed at 3.5 m/sec to a predetermined depth of 1.5 mm, resulting in TBI. The other cortex was not injured and left intact. Following the experimental TBI protocol, the animals were randomly divided into two groups and were either treated with vehicle or 10 mg/kg of β-methyl-6-chloromelatonin intraperitoneally (two doses; first dose 15 minutes after TBI and the second 24 hours later). The animals were allowed to recover for 168 hours (seven days). On Day 7, quantitative morphometric image analysis was employed to assess cortical tissue damage. Quantitative morphometry is considered to be the “gold standard” for assessing neuroprotectant drug efficacy in TBI (Sullivan et al., 1999; Sullivan et al., 2000a; Sullivan et al., 2000b).

[5] abbreviates: 10 mg/kg i.p. 1 hr prior to open field testing.
The mark [6] stands for this setting: 100 mg/kg i.p. 1 hr prior to open field testing.
Setting [7] is: 10 and 100 mg/kg i.p., P values>0.10.

As for `COc1ccc2[nH]cc(CCNC(C)=O)c2c1` [melatonin], the “core symptoms of fibromyalgia (severity of pain, tender point count, patient and physician ratings)” value in series [1] (20 patients treated for 30 days, Citera et al., 2000) was “Significant improvement”. The “patient-reported improvement including lack of pain and fatigue” value in series [1] (daily treatment, end of treatment, Acuna-Castroviejo et al., 2006) is on record as “significant improvement”. In addition, in [2], the headache frequency result is “significant decrease” and the headache intensity result was “decrease”. The body weight entry in series [3] is “significantly decreased”. Moreover, the body weight result with middle-aged male rats (daily treatment, middle-aged obesity, Rasmussen et al., 1999) is reported as “significantly decreased”. Moreover, the fat content entry in the series with middle-aged male rats (middle-age obesity, as opposed to lean body mass) was “significant decrease”.
Turning to `COc1cc2c([C@@H](C)CNC(C)=O)c[nH]c2cc1Cl` [β-methyl-6-chloromelatonin, (R)-N-[2-(6-chloro-5-methoxy-1H-indol-3-yl)propyl]acetamide], the “binding to melatonin receptors” value in the series on melatonin receptors is recorded as “high affinity”. Moreover, in the series with male Sprague-Dawley rats (setting [5]), the “rearing behavior compared to vehicle controls” value is given as “significantly increased” and the “immobility compared to controls” value is “significantly decreased”. Besides, in the series on male Sprague-Dawley rats (setting [6]), the “rearing behavior compared to vehicle controls” value was “significantly increased” and the “immobility compared to controls” value was “significantly decreased”. In addition, in the series on male Sprague-Dawley rats (setting [7]), the “sedative effect: quadrant crossings” value is “no significant drug effect” and the “sedative effect: total mobility” value is listed as “no significant drug effect”. Moreover, the “side effects compared to placebo treatment” value in the series on humans was “no significant side effects”. Moreover, the nitrite production result in series [4] (P<0.01, FIG. 4) is on record as “blocked”. The “increase in PGE2 levels” value in series [4] (P<0.01, FIG. 5) is “blocked”. Further, the “reduction in brain infarct size compared to vehicle-treated IHI mice” value in the series on IHI mice is 33-40%. In addition, in the series with TBI rats, the “reduction in damaged cortical tissue compared to vehicle-treated TBI rats” value is recorded as 68%.
